Data from patent publication US6897215B1, “Compounds having 5-HT6 receptor antagonist activity” (NPS Allelix Corp., priority 1999, dated 2005).
Where two headings read alike, the source gives them in different places.

Experiments:
[1] = target: T1, human 5-HT6 subtype of receptor (Homo sapiens, UniProt P50406); experiment: biochemical
human 5-HT6 receptors = target: T2, human 5-HT6 receptors (Homo sapiens, UniProt P50406); experiment: functional adenylyl cyclase assay: cAMP accumulation in stably transfected HEK293 cells; type: cell-based; settings: 1 uM serotonin
T2 construct: expressed in transfected cells; host or cells: HEK293 (stably transfected, G418 selection)
T2 sequence (P50406 whole entry): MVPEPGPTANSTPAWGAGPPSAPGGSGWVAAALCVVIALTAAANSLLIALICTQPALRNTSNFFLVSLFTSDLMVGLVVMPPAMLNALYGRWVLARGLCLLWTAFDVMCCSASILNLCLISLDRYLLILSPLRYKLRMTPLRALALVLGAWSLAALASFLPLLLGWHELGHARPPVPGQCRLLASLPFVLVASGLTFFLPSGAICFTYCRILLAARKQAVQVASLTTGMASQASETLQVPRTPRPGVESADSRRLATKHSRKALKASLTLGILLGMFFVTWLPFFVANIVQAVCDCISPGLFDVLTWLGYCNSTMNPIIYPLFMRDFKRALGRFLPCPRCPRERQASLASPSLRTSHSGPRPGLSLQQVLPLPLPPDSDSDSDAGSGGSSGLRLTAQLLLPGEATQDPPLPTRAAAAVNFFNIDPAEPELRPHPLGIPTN
Description: The antagonist property of the compounds at the human 5-HT6 receptors was determined by testing their effect on cAMP accumulation in stably transfected HEK293 cells. […] A compound that is an agonist will show an increase in cAMP production and a compound that is an antagonist will block the agonist effect Human 5-HT6 receptors were cloned and stably expressed in HEK293 cells. These cells were plated in 6 well plates in DMEM/F12 media with 10% fetal calf serum (FCS) and 500 ug/mL G418 and incubated at 37° C. in a CO2 incubator. The cells were allowed to grow to about 70% confluence before initiation of the experiment. On the day of the experiment, the culture media was removed, and the cells were washed once with serum free medium (SFM). Two mL of SFM+IBMX media was added and incubated at 37° C. for 10 min. […] The tubes were centrifuged for 5 min at 4° C., and the supernatants were stored at 4° C. until assayed. cAMP content was determined by EIA (enzyme-immunoassay) using the Amersham Biotrak cAMP EIA kit (Amersham RPN 225). […] Briefly, cAMP is determined by the competition between unlabeled cAMP and a fixed quantity of peroxidase-labelled cAMP for the binding sites on anti-cAMP antibody. […] The reaction is stopped by the addition of 100 uL 1.0 M sulphuric acid and the resultant color read by a microtitre plate spectrophotometer at 450 nM within 30 minutes.

[2] = target: T1, human 5-HT6 subtype of receptor; settings: read-out: 5-HT6 receptor affinity (Ki); radioligand 3H-LSD, 60 minute incubation at 37° C.
[3] = system: a number of other receptors including other serotonin receptors such as 5-HT1A and 5-HT7; experiment: selectivity over other receptors; settings: 5-HT6 versus other receptors incl. 5-HT1A and 5-HT7

T1 sequence (P50406 whole entry): as above

`O=S(=O)(c1cccc2ccccc12)n1ccc2ccc(C3CCN4CCCC4C3)cc21` (single isomer, unassigned) [Example 5F (13)] showed a Ki [1] of 0.7 nM.

In the case of `O=S(=O)(c1cccc2ccccc12)n1ccc2ccc(N3CCN4CCCC4C3)cc21` (stereo not drawn) [Example 4a, 6-[6,5-Bicyclopiperazinyl]-1-[1-naphthylenesulphonyl]indole], the IC50 (human 5-HT6 receptors) is reported as 7.2 nM, the “antagonist property at the 5-HT6 receptor” value (human 5-HT6 receptors) is reported as “competitive antagonist” and the Ki [2] is reported as 0.2 nM. The “selectivity over other receptors” value [3] was “good selectivity”.

`O=S(=O)(c1cccc2ccccc12)n1ccc2ccc(C3CCN4CCCC4C3)cc21` [Example 5F (12), 6-[(7-R,S)(8a-R,S)-Octahydroindolizin-7-yl]-1-naphthylsulfonyl-indole] showed a Ki [2] of 0.8 nM.
